In the assay the test system is P1534 leukemia ip, CD2F1 mice, survival T/C. Put plainly: NCI In Vivo Anticancer Drug Screen. Data for tumor model P1534 Leukemia (intraperitoneal) in CD2F1 (CDF1) mice. The note with it: endpoint: mean survival time, higher = longer survival. How it is done: The antitumor activity of compounds was measured in mice bearing transplantable tumors. Survival or tumor size were measured and the results are expressed as the measurement made in the treated group (T) divided by the measurement made in the vehicle treated control group (C). The tumor model used in this assay is P1534 Leukemia (intraperitoneal) in CD2F1 (CDF1) mice

Setting [1] is: dose: 200.0 mg/kg/injection, schedule: Q01DX010 (ip), vehicle: water.
The mark [2] stands for this setting: dose: 50.0 mg/kg/injection, schedule: Q01DX010 (ip), vehicle: saline.
Where [3] appears, read: dose: 100.0 mg/kg/injection, schedule: Q01DX010 (ip), vehicle: saline.
The mark [4] stands for this setting: dose: 200.0 mg/kg/injection, schedule: Q01DX010 (ip), vehicle: saline.
The mark [5] stands for this setting: dose: 400.0 mg/kg/injection, schedule: Q01DX010 (ip), vehicle: saline.
The mark [6] stands for this setting: dose: 25.0 mg/kg/injection, schedule: Q01DX010 (ip), vehicle: saline.

Here are results for 17 compounds from PubChem BioAssay AID316 (DTP/NCI, 2004).

Where “and” joins values, the source holds several entries; their conditions need not be identical. Equal values may be shown once. Toxic doses and inconclusive results are not listed.

As for `O=C(NO)c1ccncc1`, the T/C is 101 % of control under setting [1]; 106 % of control (dose: 200.0 mg/kg/injection, schedule: Q02DX005 (ip), vehicle: water); 108 % of control (dose: 300.0 mg/kg/injection, schedule: Q01DX010 (ip), vehicle: water); 99 % of control (dose: 300.0 mg/kg/injection, schedule: Q02DX005 (ip), vehicle: water); 106 % of control (dose: 335.0 mg/kg/injection, schedule: Q01DX010 (ip), vehicle: water); 106 % of control (dose: 400.0 mg/kg/injection, schedule: Q01DX010 (ip), vehicle: water). In addition, the T/C by setting is: (dose: 400.0 mg/kg/injection, schedule: Q02DX005 (ip), vehicle: water) 110 % of control; (dose: 500.0 mg/kg/injection, schedule: Q01DX010 (ip), vehicle: water) 103 % of control; (dose: 600.0 mg/kg/injection, schedule: Q01DX010 (ip), vehicle: water) 111 % of control; (dose: 600.0 mg/kg/injection, schedule: Q02DX005 (ip), vehicle: water) 106 % of control; (dose: 800.0 mg/kg/injection, schedule: Q02DX005 (ip), vehicle: water) 109 % of control.
In the case of `N#Cc1cn(C2OC(CO)C(O)C2O)c2ncnc(N)c12` (centres undefined), the T/C was 107 % of control (dose: 16.0 micrograms/kg/injection, schedule: Q01DX010 (ip), vehicle: saline); 100 % of control (dose: 32.0 micrograms/kg/injection, schedule: Q01DX010 (ip), vehicle: saline); 107 % of control (dose: 63.0 micrograms/kg/injection, schedule: Q01DX010 (ip), vehicle: saline).
With `N=[N+]=CC(=O)OCC(N)C(=O)O` (centres undefined), the T/C runs as follows: (dose: 6.25 mg/kg/injection, schedule: Q01DX010 (ip), vehicle: other) 155 % of control; (dose: 15.5 mg/kg/injection, schedule: Q01DX010 (ip), vehicle: saline) 119 % of control.
As for `CC(=O)NCCCCCCNC(C)=O`, the T/C was 93 % of control under setting [2], 96 % of control under setting [3], 96 % of control under setting [4] and 100 % of control under setting [5].
In the case of `C[N+](C)(C)c1ncnc2nc[nH]c12`, the T/C was 107 % of control (dose: 15.0 mg/kg/injection, schedule: Q01DX010 (ip), vehicle: saline); 110 % of control (dose: 30.0 mg/kg/injection, schedule: Q01DX010 (ip), vehicle: saline); 114 % of control (dose: 60.0 mg/kg/injection, schedule: Q01DX010 (ip), vehicle: saline).
As to `CN(C)c1ccc(Nc2c3ccccc3nc3ccccc23)cc1`, the T/C runs as follows: (dose: 36.0 mg/kg/injection, schedule: Q01DX010 (ip), vehicle: saline) 121 % of control; (dose: 80.0 mg/kg/injection, schedule: Q01DX010 (ip), vehicle: saline) 92 % of control.
Turning to `C/C=C1/CN(C)C2Cc3c([nH]c4ccccc34)C(c3cc4[nH]c5c(c4cc3OC)CCN3CC4CC(C(C)O)C3C5(C(=O)OC)C4)CC1C2C(=O)OC` (centres undefined), the T/C by setting is: (dose: 5.0 mg/kg/injection, schedule: Q01DX010 (ip), vehicle: water) 98 % of control; (dose: 10.0 mg/kg/injection, schedule: Q01DX010 (ip), vehicle: other) 103 % of control; (dose: 10.0 mg/kg/injection, schedule: Q01DX010 (ip), vehicle: water) 96 % of control; (dose: 15.0 mg/kg/injection, schedule: Q01DX010 (ip), vehicle: water) 94 % of control; (dose: 20.0 mg/kg/injection, schedule: Q01DX010 (ip), vehicle: other) 92 % of control; (dose: 20.0 mg/kg/injection, schedule: Q01DX010 (ip), vehicle: water) 107 % of control. For the same compound, the T/C (dose: 30.0 mg/kg/injection, schedule: Q01DX010 (ip), vehicle: other) was 94 % of control and the T/C (dose: 40.0 mg/kg/injection, schedule: Q01DX010 (ip), vehicle: other) is 92 % of control.
Consider `CN1C2CCC1CC(OC(=O)C(CO)c1ccccc1)C2` (centres undefined), for which the T/C reads like this: under setting [6], 96 % of control; under setting [2], 100 % of control.
On to `O=C1C(=O)N(CN2CCOCC2)c2ccccc21`, for which the T/C under setting [2] is 100 % of control, the T/C under setting [3] was 100 % of control, the T/C under setting [4] is 96 % of control and the T/C under setting [5] is 103 % of control.
With `OCn1cccn1`, the T/C is, setting by setting: (dose: 100.0 mg/kg/injection, schedule: Q01DX010 (ip), vehicle: water) 124 % of control; (dose: 125.0 mg/kg/injection, schedule: Q01DX010 (ip), vehicle: water) 121 % of control; (dose: 150.0 mg/kg/injection, schedule: Q01DX010 (ip), vehicle: water) 118 % of control; under setting [1], 86 % of control.
As for `CCC(C)n1ncc2c(N(C)C)ncnc21` (centres undefined), the T/C (dose: 16.25 mg/kg/injection, schedule: Q01DX010 (ip), vehicle: saline) is 107 % of control; the T/C (dose: 32.5 mg/kg/injection, schedule: Q01DX010 (ip), vehicle: saline) is 111 % of control; the T/C (dose: 65.0 mg/kg/injection, schedule: Q01DX010 (ip), vehicle: saline) is 96 % of control.
Take `CC(=O)O[C@]1(C(C)=O)CC[C@H]2[C@@H]3C[C@H](C)C4=CC(=O)C=C[C@]4(C)[C@@]3(F)[C@@H](O)C[C@@]21C`: the T/C was 103 % of control (dose: 12.5 mg/kg/injection, schedule: Q01DX010 (sc), vehicle: steriod suspending solution) and 92 % of control (dose: 25.0 mg/kg/injection, schedule: Q01DX010 (sc), vehicle: steriod suspending solution).
For the compound `OCCOCCN1CCN(CCCN2c3ccccc3Sc3ccc(C(F)(F)F)cc32)CC1`, the T/C runs as follows: (dose: 5.0 mg/kg/injection, schedule: Q01DX010 (ip), vehicle: saline) 100 % of control; (dose: 10.0 mg/kg/injection, schedule: Q01DX010 (ip), vehicle: saline) 111 % of control; (dose: 20.0 mg/kg/injection, schedule: Q01DX010 (ip), vehicle: saline) 123 % of control; (dose: 40.0 mg/kg/injection, schedule: Q01DX010 (ip), vehicle: saline) 119 % of control.
`COc1c(OC2OC(CO)C(O)C(O)C2O)cc2c(c1OC)-c1ccc(OC)c(=O)cc1C(NC(C)=O)CC2` (centres undefined): the T/C was 107 % of control (dose: 6.25 mg/kg/injection, schedule: Q01DX010 (ip), vehicle: saline); 107 % of control (dose: 12.5 mg/kg/injection, schedule: Q01DX010 (ip), vehicle: saline); 107 % of control under setting [6]; 107 % of control and 110 % of control under setting [2].
For `CC[C@]12CN3CCc4c([nH]c5ccccc45)[C@@](C(=O)OC)(c4cc5c(cc4OC)N(C)[C@H]4[C@@](O)(C(=O)OC)[C@H](OC(C)=O)[C@]6(CC)C=CCN7CC[C@]54[C@@H]76)CC(C3)[C@H]1O2` (some centres undefined), the T/C is, setting by setting: (dose: 1.5 mg/kg/injection, schedule: Q01DX010 (ip), vehicle: saline) 182 % of control; (dose: 3.0 mg/kg/injection, schedule: Q01DX010 (ip), vehicle: saline) 260 % of control; (dose: 94.0 micrograms/kg/injection, schedule: Q01DX010 (ip), vehicle: saline) 96 % of control; (dose: 188.0 micrograms/kg/injection, schedule: Q01DX010 (ip), vehicle: saline) 103 % of control; (dose: 375.0 micrograms/kg/injection, schedule: Q01DX010 (ip), vehicle: saline) 123 % of control.
Turning to `C[C@]12CCC(=O)C[C@H]1CC[C@@H]1[C@@H]2CC[C@@]2(C)[C@H]1CC[C@]2(C)O`, the T/C is 100 % of control (dose: 50.0 mg/kg/injection, schedule: Q01DX010 (sc), vehicle: steriod suspending solution); 100 % of control (dose: 100.0 mg/kg/injection, schedule: Q01DX010 (sc), vehicle: steriod suspending solution); 96 % of control (dose: 200.0 mg/kg/injection, schedule: Q01DX010 (sc), vehicle: steriod suspending solution); 96 % of control (dose: 400.0 mg/kg/injection, schedule: Q01DX010 (sc), vehicle: steriod suspending solution).
For the compound `CCOC(N)=O`, the T/C is, setting by setting: (dose: 125.0 mg/kg/injection, schedule: Q01DX010 (ip), vehicle: saline) 100 % of control; (dose: 250.0 mg/kg/injection, schedule: Q01DX010 (ip), vehicle: saline) 112 % of control and 100 % of control; (dose: 500.0 mg/kg/injection, schedule: Q01DX010 (ip), vehicle: saline) 112 % of control and 100 % of control; (dose: 1000.0 mg/kg/injection, schedule: Q01DX010 (ip), vehicle: saline) 88 % of control and 93 % of control.
